These results are taken from patent US20070160975A1, “Method for the Identification of Drugs to Treat Stroke at Delayed Timepoints” (UNIVERSITY OF SOUTH FLORIDA, priority 2006, published 2007).

Test [1] relates to primary microglial cultures. The experiment in a line: LPS stimulated TNF-α release, ELISA. The class given is cell-based, rat. The following applies: TNF-α by ELISA. Here is the method: (§1) FIG. 2 is a graph illustrating that sigma receptor activation reduces LPS-induced cytotoxin production. […] Nitric oxide levels were quantified using the Griess reaction while TNF-α levels were measured by ELISA.
(§2) To gauge anti-inflammatory action, primary microglial cultures will be treated with lipopolysaccharide, which elicits a robust inflammatory response from these cells. Compounds that are effective agonist stroke at delayed timepoints are able to block the LPS-induced inflammatory response in microglial cells. The inflammatory cytokine, TNF-α and nitric oxide are two inflammatory agents to be measured to determine anti-inflammatory action of the compound. […] Using these two in vitro screening methods, other compounds that will be useful in treating stroke will be discovered.
TNF-α ELISA-Capture antibody (#MAB510 anti-rat antibody TNF R&D biosysterns) will be diluted with 2 μg/ml in coating buffer and incubated at 4° C. overnight. The capture antibody will then coat a high protein binding 96 well plate. Each well of the 96 well plate will be aspirated and washed three times with wash buffer. […] During incubation, direct light will be avoided 50 μl of 1 M H2SO4 will be added to each well and optical density will be determined within 30 minutes using a microplate reader set at 450 nm.

The subject of test [2] is primary microglial cultures. The experiment in a line: LPS stimulated nitric oxide release, Griess reaction. It counts as cell-based, rat. The following applies: nitric oxide by Griess reaction. The protocol: as §1, §2
Nitric Oxide Determination: The supematant from treated primary rat rnicrogiia cultures will be harvested, placed in 1.5 ml micro-centrifuge tubes and then centrifuged in a bench top micro-centrifuge at 13,000×g for 1 minute. The supernatant will be withdrawn and placed in a clean, labeled micro-centrifuge tube. Standards (between 100 μM and 1 μM) will be prepared by diluting stock 1 mM Sodium Nitrite, contained in the kit, with DMEM in 1.5 ml micro centrifuge tubes. […] The absorbance at 458 nm will be measured in a spectrophotometer capable of reading 96 well plates.

As to `Cc1ccccc1N=C(N)Nc1ccccc1C` [DTG], the “LPS stimulated TNF-α release” value in test [1] is reported as “dose dependently reduced”. Besides, in test [2], the “LPS stimulated nitric oxide release” value is “dose dependently reduced”.
